Bounds are passed on as bounds.

The assay has as its target T1, N-terminally GST-tagged human full length recombinant Mps-1 kinase (Homo sapiens, UniProt P33981).
T1 construct: N-terminally GST-tagged human full length recombinant Mps-1 kinase; purchased Invitrogen, Karslruhe, Germany PV4071
T1 sequence (P33981 1-857): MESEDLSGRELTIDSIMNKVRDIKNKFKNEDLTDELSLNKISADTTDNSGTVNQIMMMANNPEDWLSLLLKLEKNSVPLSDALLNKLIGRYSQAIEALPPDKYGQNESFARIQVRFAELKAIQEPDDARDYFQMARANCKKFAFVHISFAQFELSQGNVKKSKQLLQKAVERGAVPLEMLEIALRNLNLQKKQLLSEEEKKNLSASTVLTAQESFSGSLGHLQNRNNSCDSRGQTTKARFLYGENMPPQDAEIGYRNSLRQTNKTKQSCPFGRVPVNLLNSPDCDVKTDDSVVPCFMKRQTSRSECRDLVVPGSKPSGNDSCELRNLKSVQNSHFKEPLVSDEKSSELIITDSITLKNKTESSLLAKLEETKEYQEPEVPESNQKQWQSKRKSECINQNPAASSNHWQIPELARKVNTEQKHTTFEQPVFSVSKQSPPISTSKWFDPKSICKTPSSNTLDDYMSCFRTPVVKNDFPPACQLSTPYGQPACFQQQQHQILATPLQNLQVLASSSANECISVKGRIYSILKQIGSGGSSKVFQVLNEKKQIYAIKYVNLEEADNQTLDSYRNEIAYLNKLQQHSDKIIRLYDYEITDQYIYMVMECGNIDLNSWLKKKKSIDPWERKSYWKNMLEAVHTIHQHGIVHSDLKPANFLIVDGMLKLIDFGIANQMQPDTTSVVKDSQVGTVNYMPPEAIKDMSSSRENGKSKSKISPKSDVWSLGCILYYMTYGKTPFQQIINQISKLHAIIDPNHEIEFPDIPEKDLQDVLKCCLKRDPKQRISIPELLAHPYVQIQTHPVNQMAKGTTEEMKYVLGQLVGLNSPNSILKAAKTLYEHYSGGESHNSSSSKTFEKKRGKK
The assay is described as follows: Mps-1 kinase assay (TR-FRET). It is filed as biochemical. As to conditions: Mps1 IC50 [nM], 10 μM ATP, 1 μM peptide substrate, 60 min at 22° C. The procedure, abridged:
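Read-out: TR-FRET from Europium-labelled anti-phospho(Ser/Thr) antibody to SA-XLent after 1 h detection incubation at 22° C. Inhibition of kinase activity measured.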
A word on the IC50: it is the concentration at which inhibition is half-maximal. As to `Cc1cc(-c2cnc3c(NCCCCN(C)C)cc(Oc4cccc(F)c4)nn23)ccc1C(=O)NC1CC1` [Example 513, N-cyclopropyl-4-[8-{[4-(dimethyl-amino)butyl]amino}-6-(3-fluoro-phenoxy)imidazo[1,2-b]pyridazin-3-yl]-2-methylbenzamide], the IC50 turned out to be 0.2 nM. Turning to `CSc1cc(NCc2ccnn2C)c2ncc(-c3ccc(C(=O)NC4CC4)c(C)c3)n2n1` [Example 237, N-cyclopropyl-2-methyl-4-[8-{[(1-methyl-1H-pyrazol-5-yl)methyl]amino}-6-(methylsulfanyl)imidazo[1,2-b]pyridazin-3-yl]benzamide], the half-maximal inhibitory concentration (IC50) was 5.6 nM. `Cc1cc(-c2cnc3c(NCC(C)(C)O)cc(Oc4cccc(C(C)C)c4)nn23)ccc1C(=O)NC1CC1` [Example 94, N-cyclopropyl-4-{8-[(2-hydroxy-2-methylpropyl)amino]-6-(3-isopropylphenoxy)imidazo[1,2-b]pyridazin-3-yl}-2-methylbenzamide]: the IC50 was determined as 0.3 nM. Consider `CC(C)CNc1cc(-c2ccc(F)cc2)nn2c(-c3ccc(C(=O)NC4CC4)cc3)cnc12` [Example 104, N-cyclopropyl-4-{6-(4-fluorophenyl)-8-[(2-methylpropyl)amino]imidazo[1,2-b]pyridazin-3-yl}benzamide], for which the IC50 is < 1 nM. As to `Cc1cc(-c2cnc3c(NCCC(F)(F)F)cc(-c4ccncc4)nn23)ccc1C(=O)NC1CC1` [Example 228, N-cyclopropyl-2-methyl-4-{6-(pyridin-4-yl)-8-[(3,3,3-trifluoropropyl)amino]imidazo[1,2-b]pyridazin-3-yl}benzamide], the IC50 was 0.6 nM. As to `Cc1ccccc1Oc1cc(NCCC(F)(F)F)c2ncc(-c3ccc(C(=O)NC4CC4)c(C)c3)n2n1` [Example 474, N-cyclopropyl-2-methyl-4-{6-(2-methylphenoxy)-8-[(3,3,3-trifluoro-propyl)amino]imidazo [1,2-b]pyridazin-3-yl} benzamide], the IC50 was 0.3 nM. As to `Cc1cc(-c2cnc3c(NCC4CCSCC4)cc(Oc4ccc(Cl)c(F)c4)nn23)ccc1C(=O)NC1CC1` [Example 291, 4-{6-(4-chloro-3-fluorophenoxy)-8-[(tetrahydro-2H-thiopyran-4-ylmethyl)amino]imidazo[1,2-b]pyridazin-3-yl}-N-cyclopropyl-2-methylbenzamide], the IC50 was determined as 0.6 nM.

`Cc1cc(-c2cnc3c(NCCC(F)(F)F)cc(Sc4cccc(O)c4)nn23)ccc1C(=O)NC1CC1` [Example 238, N-cyclopropyl-4-{6-[(3-hydroxyphenyl)sulfanyl]-8-[(3,3,3-trifluoropropyl)amino]imidazo[1,2-b]pyridazin-3-yl}-2-methylbenzamide]: the half-inhibitory concentration (IC50) is < 0.1 nM.

For `O=C(NC1CC1)c1ccc(-c2cnc3c(NCc4cccs4)cc(Cl)nn23)cc1Cl` [Example 187, 2-Chloro-4-{6-chloro-8-[(thiophen-2-ylmethyl)amino]imidazo[1,2-b]pyridazin-3-yl}-N-cyclopropyl-benzamide], the IC50 was determined as 49.8 nM.

On to `Cc1ccc(F)cc1Oc1cc(NCCN2CCOCC2)c2ncc(-c3ccc(C(=O)NC4CC4)c(C)c3)n2n1` [Example 537, N-cyclopropyl-4-[6-(5-fluoro-2-methylphenoxy)-8-{[2-(morpholin-4-yl)ethyl]amino}imidazo[1,2-b]pyridazin-3-yl]-2-methylbenzamide], for which the IC50 was found to be 0.2 nM. Consider `Cc1cc(-c2cnc3c(NCCC(F)(F)F)cc(Sc4nncn4C)nn23)ccc1C(=O)NC1CC1` [Example 419, N-cyclopropyl-2-methyl-4-{6-[(4-methyl-4H-1,2,4-triazol-3-yl)sulfanyl]-8-[(3,3,3-trifluoropropyl)amino]imidazo[1,2-b]pyridazin-3-yl}benzamide], for which the IC50 was 3.5 nM. As to `Cc1cc(F)cc(Nc2cc(NCCC(F)(F)F)c3ncc(-c4ccc(C(=O)NC5CC5)c(C)c4)n3n2)c1` [Example 371, N-cyclopropyl-4-{6-[(3-fluoro-5-methylphenyl)amino]-8-[(3,3,3-trifluoropropyl)amino]imidazo[1,2-b]pyridazin-3-yl}-2-methylbenzamide], the IC50 is 0.2 nM. On to `Cc1cc(-c2cnc3c(NCCC(F)(F)F)cc(Oc4ccc(F)nc4)nn23)ccc1C(=O)NC1CC1` [Example 436, N-cyclopropyl-4-{6-[(6-fluoropyridin-3-yl)oxy]-8-[(3,3,3-trifluoropropyl)amino]imidazo[1,2-b]pyridazin-3-yl}-2-methylbenzamide], for which the IC50 amounted to 0.1 nM. For `CC(C)CNc1cc(-c2ccccc2)nn2c(-c3ccc4c(N)n[nH]c4c3)cnc12` [Example 11, 3-(3-Amino-1H-indazol-6-yl)-N-isobutyl-6-phenylimidazo[1,2-b]pyridazin-8-amine], the IC50 turned out to be 2.4 nM. Regarding `CNC(=O)c1ccc(-c2cnc3c(NCCC(F)(F)F)cc(Oc4cc(F)ccc4C)nn23)cc1C` [Example 577, 4-{6-(5-fluoro-2-methylphenoxy)-8-[(3,3,3-trifluoropropyl)a-mino]imidazo[1,2-b]pyridazin-3-yl}-N,2-dimethylbenzamide], the IC50 was 1.4 nM. In the case of `Cc1cc(-c2cnc3c(NCC(C)(C)O)cc(Nc4ccc(F)c(F)c4)nn23)ccc1C(=O)NC1CC1` [Example 307, N-cyclopropyl-4-{6-[(3,4-difluorophenyl)amino]-8-[(2-hydroxy-2-methylpropyl)amino]imidazo[1,2-b]pyridazin-3-yl}-2-methylbenzamide], the IC50 was 0.5 nM. Next, `CSc1cccc(Oc2cc(NCC(C)(C)O)c3ncc(-c4ccc(C(=O)NC5CC5)c(C)c4)n3n2)c1F` [Example 458, N-cyclopropyl-4-{6-[2-fluoro-3-(methylsulfanyl)phenoxy]-8-[(2-hydroxy-2-methylpropyl)amino]imidazo[1,2-b]pyridazin-3-yl}-2-methylbenzamide]: 1.1 nM.

`Cc1cc(C)cc(Oc2cc(NCC(C)(C)O)c3ncc(-c4ccc(C(=O)NC5CC5)c(C)c4)n3n2)c1` [Example 96, N-cyclopropyl-4-{6-(3,5-dimethylphenoxy)-8-[(2-hydroxy-2-methylpropyl)amino]imidazo[1,2-b]pyridazin-3-yl}-2-methylbenzamide]: the IC50 stood at 0.8 nM. Take `CCNC(=O)c1ccc(-c2cnc3c(NCC4CCOCC4)cc(Oc4cc(F)ccc4C)nn23)cc1C` [Example 599, N-ethyl-4-{6-(5-fluoro-2-methylphenoxy)-8-[(tetrahydro-2H-pyran-4-ylmethyl)a-mino]imidazo[1,2-b]pyridazin-3-yl}-2-methylbenzamide]: the IC50 stood at 1 nM.

In the case of `Cc1cc(-c2cnc3c(NCC4CN(C(=O)OC(C)(C)C)C4)cc(-c4ccccc4CO)nn23)ccc1C(=O)NC1CC1` [Example 339, tert-butyl 3-[({3-[4-(cyclopropylcarbamoyl)-3-methylphenyl]-6-[2-(hydroxy-methyl)phenyl]imidazo[1,2-b]pyridazin-8-yl}amino)methyl]azetidine-1-carboxylate], the IC50 is 95.9 nM. For the molecule `Cc1cc(-c2cnc3c(NCC4CCOC4)cc(-c4ccccc4CO)nn23)ccc1C(=O)NC1CC1` (racemic) [Example 345, (RS)-N-cyclopropyl-4-{6-[2-(hydroxy-methyl)phenyl]-8-[(tetrahydro-furan-3-ylmethyl)amino]imidazo [1,2-b]pyridazin-3-yl}-2-methyl-benzamide], the IC50 came to 3 nM. With `CC(C)CNc1cc(-c2cccc(Cl)c2)nn2c(-c3ccc(C(=O)NC4CC4)cc3)cnc12` [Example 124, 4-{6-(3-Chlorophenyl)-8-[(2-methylpropyl)amino]imidazo[1,2-b]pyridazin-3-yl}-N-cyclopropylbenzamide], the IC50 was found to be 4.7 nM.

Consider `Cc1cc(-c2cnc3c(NCC(C)(C)N4CCOCC4)cc(Oc4cccc(F)c4)nn23)ccc1C(=O)NC1CC1` [Example 498, N-cyclopropyl-4-[6-(3-fluoro-phenoxy)-8-{[2-methyl-2-(morpholin-4-yl)propyl]amino}imidazo[1,2-b]pyridazin-3-yl]-2-methylbenzamide], for which the IC50 was determined as 0.3 nM. Take `Cc1cc(-c2cnc3c(NCC(C)(C)O)cc(SC4CCOCC4)nn23)ccc1C(=O)NC1CC1` [Example 335, N-cyclopropyl-4-{8-[(2-hydroxy-2-methylpropyl)amino]-6-(tetrahydro-2H-pyran-4-ylsulfanyl)imidazo[1,2-b]pyridazin-3-yl}-2-methylbenzamide]: the IC50 was determined as 3.6 nM.

Take `CC(=O)Nc1ccccc1-c1cc(NCC(C)C)c2ncc(-c3ccc(C(=O)NC4CC4)cc3)n2n1` [Example 107, 4-{6-[2-(Acetylamino)phenyl]-8-[(2-methylpropyl)amino]imidazo[1,2-b]pyridazin-3-yl}-N-cyclopropylbenzamide]: the IC50 turned out to be 35.5 nM.

Source of the values: US9255100B2 (BAYER INTELLECTUAL PROPERTY GMBH, priority 2010, dated 2016).
